System: Müller glial cells
Assay: Osmotic Müller cell swelling in acutely isolated retinal slices under hypotonic challenge
Format: cell-based, mouse
Settings: for effect on osmotic swelling of Müller cells (FIG. 3C): hypotonic challenge
Experimental: Müller cell swelling: To determine volume changes of Müller glial cells evoked by hypotonic stress, the cross-sectional area of glial cell somata in the inner nuclear layer of retinal slices was measured. Acutely isolated slices (thickness, 1 mm) were prepared from untreated control eyes and from the detached retinal area of operated eyes from C57BL/6 and Dp71-null mice, placed in a perfusion chamber and loaded with the vital dye Mitotracker Orange (10 μM). This dye is selectively taken up by Müller glial cells whereas retinal neurons, astrocytes, and microglial cells remain unstained. The stock solution of the dye was prepared in dimethylsulfoxide and resolved in saline. The slices were examined with a confocal laser scanning microscope LSM 510 Meta (Zeiss, Oberkochen, Germany). Mitotracker Orange was excited at 543 nm, and emission was recorded with a 560 nm long-pass filter. To assure that the maximum soma areas were precisely recorded, the focal plane was continuously adjusted in the course of the experiments.
A gravity-fed system with multiple reservoirs was used to perfuse the recording chamber continuously with extracellular solution; the hypotonic solution and test substances were added by rapid change of the perfusate. The extracellular solution consisted of (in mM) […], 3 KCl, 2 CaCl2, 1 MgCl2, 10 HEPES, and 11 glucose, adjusted to pH 7.4 with Tris. The hypotonic solution (60% of control osmolarity) was made up by adding distilled water. BaCl2 (1 mM) was preincubated for 10 minutes in extracellular solution before application within hypotonic solution. Blocking substances were preincubated for 15 to 45 minutes, and adenosine was administered simultaneously with the hypotonic solution. Swelling experiments were performed at room temperature.
To determine the extent of glial soma swelling, the cross-sectional area of Mitotracker Orange-stained cell bodies in the inner nuclear layer of retinal slices was measured off-line using the image analysis software of the LSM. Bar diagrams display the mean (+SEM) cross-sectional area of cell somata that was measured after 4-minute perfusion with hypotonic solution, in percent of the soma area measured before osmotic challenge (100%).

[1] = control retina from Dp71-null mice

[Ba+2].[Cl-].[Cl-] [Ba^2+, barium chloride]
effect on Müller cell soma area under hypotonic challenge (FIG. 3B) [1]: no effect | effect on Müller cell soma area under hypotonic challenge (FIG. 3B) (control retina from wt mice): induced a swelling | cross-sectional area of Müller cell somata after 4-minute perfusion with hypotonic solution, in percent of the soma area before osmotic challenge (slices from control retinas of C57BL/6 (wt) mice, BaCl2 1 mM, 102.0±1.0% without Ba2+): 111.5±1.6% | cross-sectional area of Müller cell somata after 4-minute perfusion with hypotonic solution, in percent of the soma area before osmotic challenge (untreated Dp71-null mice, BaCl2 1 mM, 118.0±2.3% without Ba2+): 122.3+3.6%

Nc1ncnc2c1ncn2[C@@H]1O[C@H](CO)[C@@H](O)[C@H]1O [adenosine]
effect on osmotic swelling of Müller cells (FIG. 3C) [1]: blocked the swelling | cross-sectional area of Müller cell somata after 4-minute perfusion with hypotonic solution, in percent of the soma area before osmotic challenge (untreated retinas from Dp71-null mice, adenosine 10 μM applied with the hypotonic solution (60% of control osmolarity), 120.3±3.8% without adenosine): 103.2±2.2%

O=C(CBr)c1ccc(Br)cc1 [4-bromophenacyl bromide]
cross-sectional area of Müller cell somata after 4-minute perfusion with hypotonic solution, in percent of the soma area before osmotic challenge (Müller cells from Dp71-null mice, 300 μM, preincubated, hypotonic solution 60% of control osmolarity): 103.3±2.1% | effect on osmotic swelling of Müller cells (FIG. 3C) [1]: blocked the swelling

COc1ccc2c(c1)c(CC(=O)O)c(C)n2C(=O)c1ccc(Cl)cc1 [indomethacin]
cross-sectional area of Müller cell somata after 4-minute perfusion with hypotonic solution, in percent of the soma area before osmotic challenge (Müller cells from Dp71-null mice, 10 μM, preincubated, hypotonic solution 60% of control osmolarity): 104.4±1.6% | effect on osmotic swelling of Müller cells (FIG. 3C) [1]: blocked the swelling
